Experimental data: US10179173B2, “Semi-solid delivery systems” (Regents of the University of Minnesota, priority 2012, dated 2019)

Assays:
[1] = In vitro drug release from drug loaded semi-solid polymer in buffered saline; assay type: physicochemical
Procedure: A certain amount of drugs (Ibuprofen or BSA) were grinded into fine particles and then mixed with certain amount of polymer in a glass vial. […] At certain time points, the buffer was removed for analysis and replaced with fresh buffer. The amount of Ibu released in the medium was measured by UV spectroscopy (Beckman Coulter, DU 640B spectrophotometer) for absorbance at 263 nm.

[2] = Solubility of drugs in water and in the semi-solid polymer; assay type: physicochemical; conditions: PCL-OE-1
[3] = cited from earlier work
[4] = mouse, in vivo, sc
Procedure: In vivo biocompatibility of the polymer was evaluated by subcutaneous injection into mice through 18-gauge needles; 50 mg of polymer was injected for each mouse. At certain time point, mouse was sacrificed and the tissue of the injection site harvested, sectioned, and stained with H&E.

CC(C)Cc1ccc(C(C)C(=O)O)cc1 (centres unmarked) [Ibu, Ibuprofen]
duration of sustained release of Ibu from the semi-solid polymer ([1]; 5 wt % in PCL-OE-1, pH 7.4 and pH 5.0): at least three | effect of pH on sustained release of Ibu ([1]; pH 7.4 versus pH 5.0): not affected by pH | solubility in the semi-solid polymer [2]: excellent solubility | solubility in water [3]: poor solubility in water

poly(ortho ester caprolactone) [PCL-OE-1]
tissue damage or inflammatory response at injection site (H&E) [4]: No visible tissue damage or inflammatory response
